The nature of experiment [1]: Thrombomodulin activity assay (cofactor activity for thrombin-dependent protein C activation). The class given is biochemical. The procedure:
(§1) Cofactor activity of TMD2 and TMD23 for thrombin-dependent protein C activation was measured as described previously. Huang H C., et al Thrombomodulin-mediated cell adhesion: Involvement of its lectin-like domain. J Biol. Chem. 2003; 278:46750-46759.
(§2) Cofactor activity of TMD2 and TMD23 for thrombin-dependent protein C activation was measured as described previously. Huang H C., et al Thrombomodulin-mediated cell adhesion: Involvement of its lectin-like domain. J Biol. Chem. 2003; 278: 46750-46759.

Experiment [2] deals with thrombin-dependent protein C activation (Homo sapiens, UniProt P00734). The description is as above. The experiment is classed as biochemical. To be noted: on an equal molar basis. The procedure: as §1, §2
Experiment [3] has as its system HUVECs. The experiment in a line: Chemotaxis assay (Transwell). The experiment is classed as cell-based, human. The procedure: (§3) The chemotactic motility of HUVECs was assayed using Transwell (Costar) with 6.5-mm diameter polycarbonate filters (8-μm pore size). The lower filter surface was coated with 10 μg gelatin (Sigma-Aldrich). Various concentrations of TMD23 in the absence or presence of 10 μg/mL polyclonal rabbit anti-TMD23 antibody or 10 ng/mL vascular endothelial growth factor (VEGF) (R & D Systems, Inc.) in M199 were placed in the lower wells. One hundred mL cell suspension containing 1×10^5 cells was loaded into each of upper well. The chamber was incubated at 37° C. for 4 h. Cells were fixed with methanol and stained with 4′,6′-diamidino-2-phenylindole (DAPI). Chemotaxis was quantified with optical microscopy (Leica) at 100× magnification using MetaMorph imaging software (Universal Imaging Corporation) by counting the cells that migrated to the filter's lower side. Five random fields in each well were counted. Each sample was assayed in triplicate, and assays were repeated three times. To determine the role of extracellular signal-regulated kinase 1/2 (ERK1/2), p38 mitogen-activated protein kinase (MAPK), and phosphatidylinositol 3-kinase (PI3 kinase)-protein kinase B/Akt (Akt) in TMD23-mediated cell migration, assays were performed in the presence of U0126, a MAPK/ERK kinase (MEK) inhibitor, SB 203580, a p38 MAPK inhibitor, and LY 294002, a PI3 kinase inhibitor. Cell viability as determined by trypan blue staining was not altered by treatment. 00126 was purchased from Promega, with SB 203580 and LY 294002 from Calbiochem.
as §3, with “hundred μL” for “hundred mL”, “MAPK/ERK kinase-(MEK)” for “MAPK/ERK kinase (MEK)”, “treatment. U0126” for “treatment. 00126”

Experiment [4] deals with HUVECs. The experiment in a line: In vitro Matrigel angiogenesis assay (tube formation). The class given is cell-based, human. The procedure: (§4) Growth-factor-reduced Matrigel (BD Biosciences) was thawed at 4° C. A total of 200 μL Matrigel was added to wells of a 48-well plate and polymerized 30 min at 37° C. Two hundred μL cell suspension containing various concentrations of VEGF, TMD23, or TMD23 in the presence of polyclonal rabbit anti-TMD23 antibody (10 μg/mL) or various signaling pathway inhibitors were plated onto Matrigel-coated wells at a density of 2.4×10^4 cells/well in M199 containing 10% FBS for 24 h at 37° C. in a 5% CO2 humidified atmosphere. Each concentration was tested in triplicate in the same plate, with wells photographed using a Leica camera (40× magnification). Tube length was quantified by measuring tubes in five randomly chosen fields from each well using MetaMorph software. Experiments were repeated at least three times.
as §4, with “5° k” for “5%”

Experiment [5] concerns human melanoma A2058 cells in Matrigel. The experiment in a line: Effect of TMD23 on tumor neoangiogenesis. The experiment is classed as in vivo, athymic nude mice. The method, then:
To assess TMD23 effects on tumor neoangiogenesis, 1×10^6 human melanoma A2058 cells (ATCC® CRL-11147) were mixed with Matrigel (0.5 mL) containing heparin (60 U/mL) and various concentrations of TMD23 and subcutaneously injected into athymic nude mice. Matrigel plugs were harvested after 18 days and frozen in liquid nitrogen. Blood vessels were detected by immunohistochemistry using anti-CD31 antibody as described above. Microvessel density (MVD) was calculated by counting six highly vascularized fields in each section (200× magnification; MetaMorph software).

In the case of “TMD23: Recombinant human thrombomodulin fragment, amino acids Ala242-Ser515 of SEQ ID NO: 2: six EGF-like structures (D2) plus Ser/Thr-rich domain D3”, the “Cofactor activity for thrombin-dependent protein C activation” value in experiment [1] is on record as 2,650 pmol of APC formed/min/mg TMD23. Besides, the “Cofactor activity higher than that of TMD2” value in experiment [2] was 25%. Besides, the “Effect on HUVEC migration compared with VEGF (10 ng/mL)” value in the experiment with HUVECs [3] (10 ng/mL TMD23) is “comparable with that of VEGF”. The “Migratory activity increased over the control” value in the experiment on HUVECs [3] (10 ng/mL TMD23, 4 h) came to 80%. In addition, the “Chemotactic response in HUVECs” value with HUVECs [3] (FIG. 2B) was “markedly induced a dose-dependent chemotactic response”. The “HUVEC tube formation on Matrigel” value with HUVECs [4] (24 h, VEGF 10 ng/mL, TMD23 5 to 250 ng/mL) is “formed elongated capillary-like structures, with complete networks”. For the same substance, the “Tubule length per well” value in the experiment with HUVECs [4] (FIG. 5G) is “stimulated tube formation in dose-dependent manner”. Besides, the “Blood vessels in Matrigel plugs (CD31 staining)” value in experiment [5] (18 days) is “significantly more blood vessels”. Moreover, the “Weight of tumor contained in a Matrigel plug” value in experiment [5] (FIG. 8A) is recorded as “increased the weight of tumor”. In experiment [5] (FIG. 8C), the “Microvessel density (MVD)” value was “increased microvessel density”. For the same substance, the “Tumor size developed by Matrigel plugs containing A2058 cells” value in experiment [5] (compared with A2058 cells alone, 18 days) is listed as “bigger”.
